The record followed here is patent US20240390337A1, “RELA/RSH INHIBITORS FOR THE TREATMENT OR PREVENTION OF MEDICAL BIOFILMS” (DREXEL UNIVERSITY, priority 2021, published 2024).

Data set [1] relates to E. coli C biofilm. Nature of the data set: Biofilm persistence assay with ampicillin (crystal violet). It is filed as cell-based. The procedure:
Biofilm persistence and viability were assessed with the hit compounds in combination with an antibiotic. It has been determined that sub-MICs (minimum inhibitory concentration) of antibiotic result in increased biofilm formation. Ampicillin was used in all of the assays due to its bactericidal effect. Sub-MIC concentrations of ampicillin were determined by growth measurements (OD600). […] Biofilm Persistence Assays with Ampicillin: Biofilms were grown for 24 or 48 h as described elsewhere herein. Planktonic cells were removed, and the biofilms were washed twice with 250 μL sterile PBS solution. Two hundred microliters of fresh LB medium with various concentrations of ampicillin were dispensed into the wells. After 18 h of incubation at 37° C., the volume of biofilm was measured by CV staining as described elsewhere herein.

Data set [2] addresses T1, RelA enzyme (Escherichia coli, UniProt P0AG20). The data set can be described thus: Semi-HTS and IC50, in vitro RelA ppGpp production assay ([α-32P]GTP). It is filed as biochemical, E. coli. Conditions: for IC50: concentration gradient, in vitro radio isotope assay. The procedure:
The next step of the semi-HTS was to run the 40 in silico determined compounds in an in vitro RelA assay at a relatively high concentration of 200 μM, to test if there is any effect on RelA ppGpp production using the α-32P-GTP radio isotope in vitro assay. […] From this assay, two compounds were picked to go into later assays (C14 [4.2%], C22 [13.4%]).
The follow-up assay to the semi-HTS is determination of in vitro half-maximal inhibitory concentration (IC50). In vitro IC50 is completed by a concentration gradient run on the in vitro radio isotope assay (FIG. 29B). […] C14 was originally purchased from Enamine®; however, it was later synthesized in-house as more was needed than could be purchased.
RelA enzyme was purified as described in Example 2.

The next data set concerns Pseudomonas aeruginosa. Nature of the data set: Toxin production by P. aeruginosa (Example 4, FIG. 42). Particulars: read-out: EC50 of inhibition of toxin production. It is filed as cell-based.
The subject of data set [3] is E. coli C biofilm. Nature of the data set: Biofilm inhibition assay (crystal violet). It is filed as cell-based. Particulars: results not shown. The procedure:
Studies were conducted in 96-well high-throughput assays. In the biofilm inhibition assay, compounds were added to the wells at the beginning of the experiment. For the biofilm dispersal assay, the biofilm was allowed to grow for 24 and 48 h, the wells were washed with sterile phosphate-buffered saline (PBS), and fresh medium supplemented with the compounds was added to the wells. The amount of biofilm was measured after 24 h.
(§1) Biofilm Inhibition Assays: For biofilm formation on polystyrene surfaces, flat-bottom 96-well microtiter plates (Corning Inc.) were used. […] The biofilm mass was measured by the CV staining assay described elsewhere herein.

Data set [4] concerns P. aeruginosa PA14. Nature of the data set: Biofilm formation in P. aeruginosa PA14. In kind it is cell-based. The procedure:
as §1

The test system of the next data set is P. aeruginosa PA01. The data set can be described thus: Biofilm formation in P. aeruginosa PA01. In kind it is cell-based. Particulars: results not shown. The procedure: as §1
Data set [5] deals with P. aeruginosa PA14.
Method: P. aeruginosa PA14 was grown overnight in LB Miller broth at 37° C. with shaking (250 rpm). […] This was then grown for 18 h at 37° C. Cells were pelleted by centrifugation. One milliliter of supernatant was collected, and 1 mL of chloroform was added to the supernatant. Layers were separated and OD690 was taken for chloroform layer (blue). OD690 was normalized to culture cell density OD600.
Data set [6] deals with E. coli C. Nature of the data set: E. coli C aggregation assay. Conditions: high salt, low temperature, amino acid starvation.
Method: E. coli C was grown in LB Miller broth at 30° C. with shaking (250 rpm) with or without compounds. E. coli C ΔrelA mutant was also grown as a control. One milliliter of the culture was transferred to standard polypropylene spectrophotometer cuvettes to measure planktonic cells densities (OD600). Remaining cultures were vortexed ˜1 min and 1 mL was aliquoted into cuvettes to measure the total cell densities (OD600). Aggregation was calculated as a ratio of planktonic to total cell density.
Data set [7] deals with (p)ppGpp production in E. coli C. The data set can be described thus: In vivo (p)ppGpp quantification in E. coli C (32P orthophosphate, serine hydroxamate, TLC). It is filed as cell-based. Particulars: 20 μM compound. The procedure:
In vivo (p)ppGpp Quantification: In vivo (p)ppGpp quantification was carried out. One milliliter of overnight cell culture of E. coli C was placed in 1.5-mL microcentrifuge tubes and pelleted. To this pellet was added 50 μL of a reaction mixture containing 20 μCi orthophosphoric acid and 40 μM serine hydroxamate in 1×MOPS minimal medium. The cell pellet was resuspended by gentle vortexing and placed in an incubator for 1 h. Cell growth arrest and cell lysis were completed by addition of 15 μL formic acid (88%). The lysate was then centrifuged to remove any insoluble components and the supernatant was spotted on a stationary-phase PEI-cellulose TLC plate. Plates were processed and analyzed as described elsewhere herein.

Data set [8] has as its system E. coli C biofilm. The data set can be described thus: Synergistic effects of compounds and ampicillin on biofilm biomass (crystal violet). Particulars: versus antibiotic-only control; for reduction of biofilm biomass at Amp40: ampicillin 40 μg·mL−1, S3-G1A and S3-G1B 50 μM, IDR1018 5 μM; for reduction in biofilm biomass at Amp50: ampicillin 50 μg·mL−1. It is filed as cell-based. The procedure:
Biofilm Dispersal Assays: For biofilm formation on polystyrene surfaces, flat-bottom 96-well microtiter plates (Corning Inc.) were used. […] These were allowed to grow for 24 h. The planktonic cells and medium were then aspirated, and the plates were washed twice with 1×PBS. Fresh LB with hit compounds were added to the biofilm wells. These cultures were then allowed to incubate at 37° C. overnight. Cell density were measured (OD600) using a Multiscan Go plate reader (ThermoFisher), and 30 μL Gram crystal violet (CV) (Remel; 3 g crystal violet, 50 mL isopropanol, 50 mL ethanol, 900 mL purified water) was applied for staining for 1 h. Plates were washed with water and air dried, and CV was solubilized with an ethanol:acetone (4:1) solution. The OD570 was determined from this solution, and the biofilm volume was calculated as the ratio of OD570 to OD600. Synergistic Effects of Compounds and Antibiotics: Biofilms were grown for 24, 48, or 72 h as described elsewhere herein. Planktonic cells were then removed, and biofilms were washed twice with 250 μL sterile PBS solution. Two hundred microliter aliquots of fresh LB medium with multiple concentrations of the tested compounds and ampicillin were dispensed into the wells. After 18 h of incubation at 37° C., the biofilm mass was measured as described elsewhere herein. For the AlamarBlue viability test, 4 μL of AlamarBlue (Invitrogen) was added and plates were incubated in a Biotek HT plate reader at 37° C. for 4 h. Cell viability was measured as fluorescence at 530/590 nm (excitation/emission) versus compound concentration or initial cell density.

The subject of data set [9] is E. coli C biofilm. Nature of the data set: AlamarBlue viability assay of biofilm cells, compounds plus ampicillin. It is filed as cell-based. The procedure: Synergistic Effects of Compounds and Antibiotics: Biofilms were grown for 24, 48, or 72 h as described elsewhere herein. Planktonic cells were then removed, and biofilms were washed twice with 250 μL sterile PBS solution. Two hundred microliter aliquots of fresh LB medium with multiple concentrations of the tested compounds and ampicillin were dispensed into the wells. After 18 h of incubation at 37° C., the biofilm mass was measured as described elsewhere herein. For the AlamarBlue viability test, 4 μL of AlamarBlue (Invitrogen) was added and plates were incubated in a Biotek HT plate reader at 37° C. for 4 h. Cell viability was measured as fluorescence at 530/590 nm (excitation/emission) versus compound concentration or initial cell density.
For orientation: Resazurin is reduced to fluorescent resorufin, in cell work by metabolically active cells.

Data set [10] concerns E. coli C. Nature of the data set: Cell growth curves (planktonic growth, OD600). Conditions: 30 μg·mL−1.
Method: Cell Growth Curves: The effect of the hit compounds on bacterial growth was tested by adding compounds at multiple concentrations to the bacterial culture (100× diluted overnight culture; approximately 10^7 cells) in fresh LB medium. Two hundred microliters aliquots were pipetted into 96-well plates and placed into a Biotek HT or Tecan Infinite M200 Pro plate reader for 18 h at 37° C. Plates were shaken during incubation and the optical density (OD630 or OD600) was measured every 15 min.
The effect of the hit compounds on bacterial growth was tested by adding compounds at 200 μM (with DMSO control) to the bacterial culture (100× diluted overnight culture; approximately 10^7 cells) in fresh LB medium. Two hundred microliter aliquots were pipetted into 96-well plates, which were placed into a Biotek HT or Tecan Infinite M200 Pro plate reader for 18 h at 37° C. Plates were shaken during incubation and the optical density (OD630 or OD600) was measured every 15 min.
Data set [11] addresses T1, RelA enzyme. The data set can be described thus: In vitro (p)ppGpp quantification (RelA ppGpp production assay, [γ-32P]ATP, TLC). Conditions: 20 μM compound.
Method: The direct (p)ppGpp detection in vivo and in vitro assays relied on different 32P radioactive nucleotides (γ-32P-ATP, α-32P-GTP) for use as substrates, and thin-layer chromatography (TLC) to separate the reaction products (stationary phase: polyethylenimine cellulose).
Both methods required TLC with a stationary phase of a polyethyleneimine (PEI)-cellulose plate and a mobile phase of 1 M potassium phosphate monobasic.
In vitro (p)ppGpp quantification: in vitro (p)ppGpp quantification was carried out. […] Roughly 0.4 μg of RelA protein was added to a 1.5-mL microcentrifuge tube containing a reaction mix composed of 1×PBS, 5 mM MgCl2, 0.5 mM ATP, 0.5 mM GTP, 0.5 mM GDP, and 20 μCi[γ-32P]ATP (3,000 Ci mmol-1; PerkinElmer) and varying concentrations of the compound of interest. These reactions were incubated at 37° C. for 1 h. The reactions were stopped by addition of 5 μL formic acid (88%). The reaction mixtures were then spotted on a stationary-phase polyethyleneimine (PEI)-cellulose TLC plate using potassium phosphate monobasic (1.5 M) as the mobile-phase. The plates were then dried, and the radiation levels were read using a Molecular Dynamics Storage Phosphor Screen. A Molecular Dynamics Storm 840 Phosphor imager Scanner was used to read the phosphor screen and ImageJ was used to process the images.

T1 sequence (P0AG20 whole entry): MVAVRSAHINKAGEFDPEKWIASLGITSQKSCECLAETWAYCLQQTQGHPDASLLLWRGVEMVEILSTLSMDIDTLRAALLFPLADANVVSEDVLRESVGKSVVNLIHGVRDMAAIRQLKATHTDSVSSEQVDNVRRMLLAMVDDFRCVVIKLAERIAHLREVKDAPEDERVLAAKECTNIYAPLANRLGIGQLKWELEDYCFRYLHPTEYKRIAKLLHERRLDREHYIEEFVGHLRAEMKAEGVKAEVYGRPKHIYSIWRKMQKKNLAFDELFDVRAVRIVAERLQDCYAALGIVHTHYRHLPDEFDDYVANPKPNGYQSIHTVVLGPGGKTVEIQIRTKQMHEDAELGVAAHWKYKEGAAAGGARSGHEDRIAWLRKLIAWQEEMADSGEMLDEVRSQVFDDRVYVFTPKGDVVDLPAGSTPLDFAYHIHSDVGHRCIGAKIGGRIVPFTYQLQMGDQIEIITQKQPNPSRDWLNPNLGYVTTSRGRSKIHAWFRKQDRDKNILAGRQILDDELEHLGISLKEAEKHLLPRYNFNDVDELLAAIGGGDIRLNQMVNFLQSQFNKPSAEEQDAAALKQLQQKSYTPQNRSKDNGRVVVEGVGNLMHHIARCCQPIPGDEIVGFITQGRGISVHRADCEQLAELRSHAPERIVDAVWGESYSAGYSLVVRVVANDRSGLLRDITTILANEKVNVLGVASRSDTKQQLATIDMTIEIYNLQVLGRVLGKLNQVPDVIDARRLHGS

`CC1(C)S[C@@H]2[C@H](NC(=O)[C@H](N)c3ccccc3)C(=O)N2[C@H]1C(=O)O` [Ampicillin]: in the data set on E. coli C biofilm [1], the “ampicillin concentration with the highest biofilm biomass” value came out at 80 µg/mL and the “effect on amount of biofilm” value was “significantly increased the amount of biofilm”.

The IC50 is the concentration that gives 50% inhibition. Read a high IC50 as weaker potency in that assay. By EC50 is commonly meant the concentration that produces a half-maximal response. Compound `O=C(O)Cn1cc(C[C@H]2NC(=O)NC2=O)nn1` [Compound C14] had a half-inhibitory concentration (IC50) on RelA enzyme [2] of 54 µM. Also, in the data set with Pseudomonas aeruginosa, the EC50 was determined as 0.0395 µM.

On to `O=C(O)CCNC(=O)c1cccc(-n2cc(Br)cn2)c1` [Compound C22, 3-(3-(4-bromo-1H-pyrazol-1-yl)benzamido)propanoic acid], for which the “effect on biofilm formation” value in the data set on E. coli C biofilm [3] and in the data set with P. aeruginosa PA01 was “little effect” each time. The “ppGpp production relative to the untreated control (set at 100%)” value at RelA enzyme [2] (200 μM compound) stood at 13.4%. The same compound had a 50% inhibitory concentration (IC50) on RelA enzyme [2] of 93 µM. For the same compound, the “biofilm formation compared to the DMSO control” value in the data set on P. aeruginosa PA14 [4] was “reduced biofilm formation but not significantly”. Further, the “effect on pyocyanin production” value in the data set with P. aeruginosa PA14 [5] is listed as “produced an effect, it never reached the level of C14”. The “E. coli C aggregation” value with E. coli C [6] is reported as “slightly absent”.

Consider `O=C(N[C@H](C(=O)O)c1ccc(Cl)cc1)c1cc(-c2ccc(O)cc2)n[nH]1` [Compound S3-G1A, (S)-2-(4-chrlorphenyl)-2-(3-(4-hydroxyphenyl)-1H-pyrazole-5carboxamido) acetic acid], for which the “reduction in ppGpp production, in vivo assay” value in [7] is reported as 31.4%. For the same compound, in the data set with E. coli C biofilm [8], the “reduction of biofilm biomass at Amp40” value is recorded as 97.9% and the “reduction in biofilm biomass at Amp50” value amounted to 67.9%. Further, the “reduction of cell viability (AlamarBlue) at Amp30” value in the data set with E. coli C biofilm [9] (ampicillin 30 μg·mL−1, compound 50 μM) is 55.4%. Also, the “decrease of cell viability (AlamarBlue) at higher concentrations of antibiotic” value in the data set on E. coli C biofilm [9] (higher concentrations of ampicillin (not specified)) was found to be 29.2%. Besides, the “effect on pyocyanin production” value with P. aeruginosa PA14 [5] is recorded as “small effect”. The “effect on planktonic growth rate / bacterial growth” value in the data set with E. coli C [10] is on record as “no effect”. Also, the “reduction of ppGpp production compared to untreated sample, in vitro assay” value on RelA enzyme [11] came out at 71.7%.

Consider `CC(C)C(=O)Nc1nc2c(ncn2[C@H]2C[C@H](OC(=O)NCC(=O)NCC(=O)O)[C@@H](COC(=O)NCC(=O)NCC(=O)O)O2)c(=O)[nH]1` [Relacin, reference compound], for which the “reduction in ppGpp production, in vivo assay” value in data set [7] is recorded as “no effect”. The “reduction of ppGpp production compared to untreated sample, in vitro assay” value at RelA enzyme [11] came to 45.4%.

As to IDR1018 [reference compound], in the data set with E. coli C biofilm [8], the “reduction of biofilm biomass at Amp40” value was 75.4% and the “reduction in biofilm biomass at Amp50” value is recorded as 65.2%.
